PubChem BioAssay (NCI)
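All cell lines were grown in 96-well plates and treated with compound for 48 hours. TGI marks complete inhibition of growth.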

How the values were obtained:
Assay in all cases: NCI-60 cell line screen, 48 h
BT-549 breast = system: BT-549 breast
CAKI-1 renal = system: CAKI-1 renal
COLO 205 colon = system: COLO 205 colon
HOP-62 NSCLC = system: HOP-62 NSCLC
HOP-92 NSCLC = system: HOP-92 NSCLC
HS 578T breast = system: HS 578T breast
LOX IMVI melanoma = system: LOX IMVI melanoma
MDA-N = system: MDA-N
NCI/ADR-RES ovarian = system: NCI/ADR-RES ovarian
OVCAR-4 ovarian = system: OVCAR-4 ovarian
OVCAR-5 ovarian = system: OVCAR-5 ovarian
RPMI-8226 leukemia = system: RPMI-8226 leukemia
SF-295 CNS = system: SF-295 CNS
SF-539 CNS = system: SF-539 CNS
SR leukemia = system: SR leukemia
SW-620 colon = system: SW-620 colon
UO-31 renal = system: UO-31 renal

SMILES: CCc1nc(N)nc(N)c1-c1ccc(N2CCOCC2)c(N=[N+]=[N-])c1
- TGI (BT-549 breast): > 100 µM
- TGI (CAKI-1 renal): > 100 µM
- TGI (COLO 205 colon): > 100 µM
- TGI (HOP-62 NSCLC): > 100 µM
- TGI (HOP-92 NSCLC): > 100 µM
- TGI (HS 578T breast): > 100 µM
- TGI (LOX IMVI melanoma): > 100 µM
- TGI (MDA-N): > 100 µM
- TGI (NCI/ADR-RES ovarian): > 100 µM
- TGI (OVCAR-4 ovarian): > 100 µM
- TGI (OVCAR-5 ovarian): > 100 µM
- TGI (RPMI-8226 leukemia): > 100 µM
- TGI (SF-295 CNS): > 100 µM
- TGI (SF-539 CNS): > 100 µM
- TGI (SR leukemia): > 80.9 µM
- TGI (SW-620 colon): > 100 µM
- TGI (UO-31 renal): > 100 µM

SMILES: Cc1cn([C@H]2C[C@@H](N3C(=O)c4ccccc4C3=O)[C@@H](CO[Si](C)(C)C(C)(C)C)O2)c(=O)[nH]c1=O
- TGI (BT-549 breast): > 100 µM
- TGI (CAKI-1 renal): > 100 µM
- TGI (COLO 205 colon): > 100 µM
- TGI (HOP-62 NSCLC): 61.4 µM
- TGI (HOP-92 NSCLC): > 100 µM
- TGI (HS 578T breast): > 100 µM
- TGI (LOX IMVI melanoma): > 100 µM
- TGI (MDA-N): > 100 µM
- TGI (NCI/ADR-RES ovarian): > 100 µM
- TGI (OVCAR-4 ovarian): > 100 µM
- TGI (OVCAR-5 ovarian): > 100 µM
- TGI (RPMI-8226 leukemia): > 100 µM
- TGI (SF-295 CNS): > 100 µM
- TGI (SF-539 CNS): > 100 µM
- TGI (SR leukemia): > 100 µM
- TGI (SW-620 colon): > 100 µM
- TGI (UO-31 renal): > 100 µM

SMILES: O=C(/C=C/c1ccccc1)CCN1CCCCC1
- TGI (BT-549 breast): > 100 µM
- TGI (CAKI-1 renal): > 100 µM
- TGI (COLO 205 colon): 38.4 µM
- TGI (HOP-62 NSCLC): > 100 µM
- TGI (HOP-92 NSCLC): > 100 µM
- TGI (HS 578T breast): > 100 µM
- TGI (LOX IMVI melanoma): 37.6 µM
- TGI (MDA-N): 60.1 µM
- TGI (NCI/ADR-RES ovarian): > 100 µM
- TGI (OVCAR-4 ovarian): > 100 µM
- TGI (OVCAR-5 ovarian): > 100 µM
- TGI (RPMI-8226 leukemia): 66.1 µM
- TGI (SF-295 CNS): > 100 µM
- TGI (SF-539 CNS): 37.7 µM
- TGI (SR leukemia): > 100 µM
- TGI (SW-620 colon): 41.6 µM
- TGI (UO-31 renal): > 100 µM

SMILES: CCOc1ccc(NC(=O)C(=O)C(/C(=N/N)C(=O)OC)c2nc3ccc([N+](=O)[O-])cc3[nH]c2=O)cc1 (stereo not given)
- TGI (BT-549 breast): > 100 µM
- TGI (CAKI-1 renal): > 100 µM
- TGI (COLO 205 colon): > 100 µM
- TGI (HOP-62 NSCLC): > 100 µM
- TGI (HOP-92 NSCLC): > 100 µM
- TGI (HS 578T breast): > 100 µM
- TGI (LOX IMVI melanoma): > 100 µM
- TGI (MDA-N): > 100 µM
- TGI (NCI/ADR-RES ovarian): > 100 µM
- TGI (OVCAR-4 ovarian): > 100 µM
- TGI (OVCAR-5 ovarian): > 100 µM
- TGI (RPMI-8226 leukemia): > 100 µM
- TGI (SF-295 CNS): > 100 µM
- TGI (SF-539 CNS): > 100 µM
- TGI (SR leukemia): > 100 µM
- TGI (SW-620 colon): > 100 µM
- TGI (UO-31 renal): > 100 µM

SMILES: O=C1CSC(c2cc3cc(Br)ccc3nc2Cl)N1c1ccc(Cl)cc1 (stereo not given)
- TGI (BT-549 breast): 61.5 µM
- TGI (CAKI-1 renal): > 100 µM
- TGI (COLO 205 colon): 41.2 µM
- TGI (HOP-62 NSCLC): > 100 µM
- TGI (HOP-92 NSCLC): > 100 µM
- TGI (HS 578T breast): > 100 µM
- TGI (LOX IMVI melanoma): 33.7 µM
- TGI (MDA-N): > 100 µM
- TGI (NCI/ADR-RES ovarian): 75.3 µM
- TGI (OVCAR-4 ovarian): 81.5 µM
- TGI (OVCAR-5 ovarian): > 100 µM
- TGI (RPMI-8226 leukemia): > 100 µM
- TGI (SF-295 CNS): 37.6 µM
- TGI (SF-539 CNS): 37.8 µM
- TGI (SR leukemia): 44.8 µM
- TGI (SW-620 colon): > 100 µM
- TGI (UO-31 renal): > 100 µM

SMILES: O=C(Nc1ccc(Cl)cc1Cl)C1C(=O)OC2(CCCCC2)OC1=O
- TGI (BT-549 breast): 26.7 µM
- TGI (CAKI-1 renal): 22.5 µM
- TGI (COLO 205 colon): 26.7 µM
- TGI (HOP-62 NSCLC): 17.3 µM
- TGI (HOP-92 NSCLC): 28.1 µM
- TGI (HS 578T breast): 64.9 µM
- TGI (LOX IMVI melanoma): 20.4 µM
- TGI (MDA-N): 61.2 µM
- TGI (NCI/ADR-RES ovarian): 26.4 µM
- TGI (OVCAR-4 ovarian): > 100 µM
- TGI (OVCAR-5 ovarian): 28 µM
- TGI (RPMI-8226 leukemia): 35.7 µM
- TGI (SF-295 CNS): 19.4 µM
- TGI (SF-539 CNS): 23.6 µM
- TGI (SR leukemia): 64.1 µM
- TGI (SW-620 colon): 25.3 µM
- TGI (UO-31 renal): 15.1 µM

SMILES: Nc1ccc2c(=S)c3ccccc3[nH]c2c1
- TGI (BT-549 breast): > 100 µM
- TGI (CAKI-1 renal): > 100 µM
- TGI (COLO 205 colon): > 100 µM
- TGI (HOP-62 NSCLC): > 73 µM
- TGI (HOP-92 NSCLC): 98.9 µM
- TGI (HS 578T breast): > 100 µM
- TGI (LOX IMVI melanoma): > 100 µM
- TGI (MDA-N): > 100 µM
- TGI (NCI/ADR-RES ovarian): > 100 µM
- TGI (OVCAR-4 ovarian): > 100 µM
- TGI (OVCAR-5 ovarian): > 100 µM
- TGI (RPMI-8226 leukemia): > 100 µM
- TGI (SF-295 CNS): > 100 µM
- TGI (SF-539 CNS): > 100 µM
- TGI (SR leukemia): > 100 µM
- TGI (SW-620 colon): > 100 µM
- TGI (UO-31 renal): > 100 µM

SMILES: CC(C)(C)OC(=O)/N=C/c1c(O)c2ccccc2oc1=O
- TGI (BT-549 breast): > 100 µM
- TGI (CAKI-1 renal): 52.6 µM
- TGI (COLO 205 colon): > 100 µM
- TGI (HOP-62 NSCLC): > 100 µM
- TGI (HOP-92 NSCLC): > 100 µM
- TGI (HS 578T breast): 65.9 µM
- TGI (LOX IMVI melanoma): > 100 µM
- TGI (MDA-N): > 100 µM
- TGI (NCI/ADR-RES ovarian): > 100 µM
- TGI (OVCAR-4 ovarian): > 100 µM
- TGI (OVCAR-5 ovarian): > 100 µM
- TGI (RPMI-8226 leukemia): > 100 µM
- TGI (SF-295 CNS): > 100 µM
- TGI (SF-539 CNS): > 100 µM
- TGI (SR leukemia): > 100 µM
- TGI (SW-620 colon): > 100 µM
- TGI (UO-31 renal): > 100 µM

SMILES: Cc1nc2ccc(S(=O)(=O)O)cc2c(=O)n1-c1ccc(C(=O)NN2C(=O)C(Cl)C2c2cccs2)cc1 (stereo not given)
- TGI (BT-549 breast): > 100 µM
- TGI (CAKI-1 renal): > 100 µM
- TGI (COLO 205 colon): > 100 µM
- TGI (HOP-62 NSCLC): 60.1 µM
- TGI (HOP-92 NSCLC): > 100 µM
- TGI (HS 578T breast): > 100 µM
- TGI (LOX IMVI melanoma): > 100 µM
- TGI (MDA-N): 80.2 µM
- TGI (NCI/ADR-RES ovarian): > 100 µM
- TGI (OVCAR-4 ovarian): 79.7 µM
- TGI (OVCAR-5 ovarian): > 100 µM
- TGI (RPMI-8226 leukemia): > 100 µM
- TGI (SF-295 CNS): > 100 µM
- TGI (SF-539 CNS): > 100 µM
- TGI (SR leukemia): > 100 µM
- TGI (SW-620 colon): > 100 µM
- TGI (UO-31 renal): > 100 µM

SMILES: CC1=C(C(=O)NNC(=O)C[N+](C)(C)C)CC(C(=O)NNC(=O)C[N+](C)(C)C)=C(C)N1
- TGI (BT-549 breast): > 100 µM
- TGI (CAKI-1 renal): > 100 µM
- TGI (COLO 205 colon): > 100 µM
- TGI (HOP-62 NSCLC): > 100 µM
- TGI (HOP-92 NSCLC): > 100 µM
- TGI (HS 578T breast): > 100 µM
- TGI (LOX IMVI melanoma): > 100 µM
- TGI (MDA-N): > 100 µM
- TGI (NCI/ADR-RES ovarian): > 100 µM
- TGI (OVCAR-4 ovarian): > 100 µM
- TGI (OVCAR-5 ovarian): > 100 µM
- TGI (RPMI-8226 leukemia): > 100 µM
- TGI (SF-295 CNS): > 100 µM
- TGI (SF-539 CNS): > 100 µM
- TGI (SR leukemia): > 100 µM
- TGI (SW-620 colon): > 100 µM
- TGI (UO-31 renal): > 100 µM
